Measured values reported in patent US6579718B1, “Carbazolylvinyl dye protein stains” (Molecular Probes, Inc., priority 2000, dated 2003).
“And” between values parts separate entries of the source, which are not always exact repeats. Identical values can stand only once.

What was measured:
[1] = Fluorescence excitation/emission spectra in 2% SDS at acidic and neutral pH (Example 20, FIG. 1); format: physicochemical; conditions: 2% SDS in 7% acetic acid or phosphate-buffered saline
Protocol: FIG. 1: Fluorescence excitation/emission spectra of Compound 9. Spectra were generated in 7% acetic acid, 2% SDS. […] Identical spectra were obtained in phosphate-buffered saline, 2% sodium dodecyl sulfate (SDS).
Excitation/emission profiles of Compound 9 are obtained by incubating a […] solution of the dye in 2% SDS that has been prepared in either 7% acetic acid or 50 mM Na2HPO4, 150 mM NaCl, pH 7.0 for 30 minutes. Without the SDS, the dye gives very low fluorescence emission in aqueous solutions or buffers. Measurements are made in a quartz cuvette using a Hitachi F4500 fluorescence Spectrometer (Hitachi, Tokyo, Japan) or similar instrument. Spectra generated in 7% acetic acid, 2% SDS can be essentially superimposed on spectra obtained in phosphate-buffered saline, 2% SDS. Excitation maxima are observed at 300 and 490 nm with emission set at 640 nm. An emission maximum is observed at 640 nm with excitation set at 440 nm. This excitation profile is ideally suited for visualization of the stain using a 302-nm UV-B transilluminator, 473-nm second harmonic generation (SHG) laser or 488-nm argon-ion laser. The dye can also be visualized on a blue-light box (DARK READER™, Clare Research, Boulder, Colo.). The emission maximum of the Compound 9 is observed at 640 nm, and is thus spectrally well matched to emission band-pass filters optimized for the Texas Red dye.

bovine serum albumin = bovine serum albumin (Bos taurus, UniProt P02769); experiment: Fluorescence enhancement in presence of bovine serum albumin and SDS in solution (FIG. 5); format: physicochemical; conditions: 10 mM Tris, pH 8.0, 200 μg/mL bovine serum albumin
Chain of bovine serum albumin (P02769 25-607): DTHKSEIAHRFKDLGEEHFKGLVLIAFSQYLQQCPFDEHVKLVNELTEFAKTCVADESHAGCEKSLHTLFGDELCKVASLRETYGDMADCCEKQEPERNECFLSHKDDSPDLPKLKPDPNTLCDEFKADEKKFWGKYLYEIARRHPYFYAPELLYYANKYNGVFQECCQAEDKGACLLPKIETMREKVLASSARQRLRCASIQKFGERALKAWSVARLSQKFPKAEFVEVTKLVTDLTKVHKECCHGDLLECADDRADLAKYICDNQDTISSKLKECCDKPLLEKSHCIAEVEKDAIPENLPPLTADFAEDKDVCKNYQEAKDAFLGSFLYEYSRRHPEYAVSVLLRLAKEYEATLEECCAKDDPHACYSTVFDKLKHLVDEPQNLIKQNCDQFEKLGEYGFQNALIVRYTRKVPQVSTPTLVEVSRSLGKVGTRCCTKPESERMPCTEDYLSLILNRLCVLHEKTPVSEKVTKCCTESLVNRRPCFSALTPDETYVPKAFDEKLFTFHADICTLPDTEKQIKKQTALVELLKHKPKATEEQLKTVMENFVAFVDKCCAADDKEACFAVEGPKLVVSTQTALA
Protocol: FIG. 5: Fluorescence enhancement of Compound 9 in the presence of bovine serum albumin and sodium dodecyl sulfate in solution. Dye in 10 mM Tris, pH 8.0, 200 μg/mL bovine serum albumin, 0.05% SDS was compared with dye in 10 mM Tris, pH 8.0, 200 μg/mL bovine serum albumin, dye in 10 mM Tris, pH 8.0, 0.05% SDS or simply dye in 10 mM Tris, pH 8.0. A 7-fold enhancement in fluorescence emission of the dye in the presence of protein alone was observed relative to the dye in buffer alone. A 40-fold enhancement of fluorescence emission of the dye in the presence of anionic detergent and protein was observed relative to dye in buffer alone.

proteins = experiment: Prestaining of proteins prior to electrophoresis (Example 31); conditions: prestaining before electrophoresis
Protocol: The proteins of interest are diluted to appropriate concentrations in electrophoresis sample buffer. The samples are then heated to 90-95° C. for 4-5 minutes and allowed to cool to room temperature. Compound 9 is added to the protein solutions to a final concentration of 10 mM, and the samples are loaded onto a 12% polyacrylamide gel, or other appropriate percentage gel. The gel is electrophoresed under standard conditions and visualized directly using ultraviolet illumination. The sensitivity of this method is somewhat less than the sensitivity possible using the methods in Example 22 (post staining the gel after electrophoresis) or in Example 30 (dye in running buffer).

[2] = test system: broad-range protein molecular weight markers; experiment: Staining of broad-range molecular weight protein standards in SDS-polyacrylamide gels (Example 22, FIG. 2, 3)
Protocol: (§1) FIG. 2: Intensity profile comparison after staining broad-range protein molecular weight markers with SYPRO Orange dye in 7% acetic acid and phosohate-buffered saline. FIG. 2A.) Profile obtained with SYPRO Orange dye in 7% acetic acid. FIG. 2B.) Profile obtained with SYPRO Orange dye in 50 mM sodium phosphate, 150 mM sodium chloride, pH 7.0. Grey scale values of the fluorescence signals were inverted prior to obtaining the traces to facilitate evaluation of the peaks.
as §1, with “3:” for “2:”, “Compound 9” for “SYPRO Orange dye”, “phosphate-buffered” for “phosohate-buffered”, “3A.)” for “2A.)”, “3B.)” for “2B.)”
SDS-polyacrylamide gel electrophoresis is performed by standard methods utilizing 4% T, 2.6% C stacking gels, pH 6.8 and 15% T, 2.6% C separating gels, pH 8.8. % T is the total monomer concentration expressed in grams per 100 mL and % C is the percentage crosslinker. A staining solution of Compound 9 is prepared by diluting a stock solution that 5 is […] dye in DMSO in either 7.5% acetic acid or 50 mM Na2HPO4, 150 mM NaCl, pH 7.0 with vigorous mixing. Alternatively, a wide range of buffers are compatible with staining, including but not limited to formate, pH 4.0; citrate, pH 4.5; acetate, pH 5.0; MES, pH 6.0;
imidazole, pH 7.0; HEPES, pH 7.5; Tris acetate, pH 8.0; Tris-HCl, pH 8.5; Tris borate, 20 mM EDTA, pH 9.0; and bicarbonate, pH 10.0. Buffers should be prepared as 50-100 mM 10 solutions containing about 150 mM NaCl. Approximately 50-75 mL of staining solution is used for a typical mini-gel (5 cm×9 cm×1 mm). The gel is placed into the staining solution and the container is covered with aluminum foil to protect the dye from bright light. The gel is gently agitated for at least 30 minutes at room temperature using an orbital shaker (50:RPM). After staining, the gel is briefly dipped in water and visualized on a UV light box. […] As little as 1 ng of protein may be visualized when the fluorescent image is recorded by photography using a cellophane 490-nm long pass filter. […] In the latter buffer, protein bands are barely detectable above background fluorescence with these latter dyes.

CCn1c2ccccc2c2cc(/C=C/c3cc[n+](CCCCS(=O)(=O)[O-])c4ccccc34)ccc21 [Compound 9]
Excitation maxima ([1]; emission set at 640 nm): 300 nm and 490 nm
Emission maximum ([1]; excitation set at 440 nm): 640 nm
Enhancement in fluorescence emission, protein alone relative to dye in buffer alone (bovine serum albumin): 7 fold
Enhancement of fluorescence emission, anionic detergent and protein relative to dye in buffer alone (bovine serum albumin; 0.05% SDS): 40 fold
Sensitivity compared with methods of Example 22 or Example 30 (proteins): somewhat less
Brightness of protein band staining ([2]; 7% acetic acid): as brightly as SYPRO Orange dye
Amount of protein that may be visualized (detection sensitivity) ([2]; SDS-polyacrylamide gel, photography with 490-nm long pass filter): 1 ng
Brightness of protein staining compared with SYPRO Orange dye ([2]; phosphate-buffered saline): much more brightly
Appearance of stained proteins on UV light box ([2]; regardless of the buffer): bright orange bands
